Each structure is given as a SMILES string.

We go through one compound from article PMC6222927, “Aminobenzosuberone Scaffold as a Modular Chemical Tool for the Inhibition of Therapeutically Relevant M1 Aminopeptidases” (Molecules : A Journal of Synthetic Chemistry and Natural …, 2018).

Series [1] concerns the target T1, P. falciparum rPfAM1 (Plasmodium falciparum, UniProt O96935).
T1 construct: made in house; host or cells: Escherichia coli Rosetta 2 (DE3)
T1 sequence (O96935 1-1085): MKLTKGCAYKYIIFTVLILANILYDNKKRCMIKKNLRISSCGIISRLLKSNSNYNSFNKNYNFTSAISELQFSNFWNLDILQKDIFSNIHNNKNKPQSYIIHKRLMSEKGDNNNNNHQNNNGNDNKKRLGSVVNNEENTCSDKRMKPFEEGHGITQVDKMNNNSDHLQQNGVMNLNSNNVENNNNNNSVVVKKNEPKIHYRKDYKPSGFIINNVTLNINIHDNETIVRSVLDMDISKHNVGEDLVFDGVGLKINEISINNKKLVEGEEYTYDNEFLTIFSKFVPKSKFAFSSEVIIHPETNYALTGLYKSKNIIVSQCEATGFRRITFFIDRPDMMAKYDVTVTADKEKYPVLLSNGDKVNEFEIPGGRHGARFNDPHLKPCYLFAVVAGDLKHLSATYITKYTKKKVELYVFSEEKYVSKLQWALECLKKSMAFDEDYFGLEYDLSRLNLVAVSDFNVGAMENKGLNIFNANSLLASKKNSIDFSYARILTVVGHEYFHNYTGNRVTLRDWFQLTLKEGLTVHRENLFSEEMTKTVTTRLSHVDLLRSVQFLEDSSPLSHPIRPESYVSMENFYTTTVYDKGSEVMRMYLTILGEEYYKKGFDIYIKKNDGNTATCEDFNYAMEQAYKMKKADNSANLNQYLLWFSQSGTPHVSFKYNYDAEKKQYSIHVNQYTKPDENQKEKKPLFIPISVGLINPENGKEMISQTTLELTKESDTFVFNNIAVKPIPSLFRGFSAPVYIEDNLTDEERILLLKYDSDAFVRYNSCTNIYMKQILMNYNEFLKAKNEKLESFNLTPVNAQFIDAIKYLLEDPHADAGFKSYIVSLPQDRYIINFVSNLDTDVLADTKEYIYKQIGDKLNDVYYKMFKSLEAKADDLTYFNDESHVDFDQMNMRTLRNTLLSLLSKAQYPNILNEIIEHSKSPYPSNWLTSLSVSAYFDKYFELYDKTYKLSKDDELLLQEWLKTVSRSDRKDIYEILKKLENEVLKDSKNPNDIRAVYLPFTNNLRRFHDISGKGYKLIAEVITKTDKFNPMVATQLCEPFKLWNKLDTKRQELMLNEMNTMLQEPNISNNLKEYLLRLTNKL
As to the kind of experiment: biochemical. It is filed as biochemical. The protocol: Initial velocities were measured with increasing concentrations of inhibitors and Ki values were determined by Dixon plots in triplicate.

Series [2] has as its target E. coli rEcPepN (Escherichia coli, UniProt P04825). Kind of series: rEcPepN inhibition, Leu-pNA substrate, Dixon method. Format: biochemical. On the procedure: Enzyme activity assays were carried out in 10 mM Tris-HCl buffer at pH 7.5 with 150 mM NaCl, enzyme, 100 µM substrate (Leu-pNA) in a 100 μL reaction at 37 °C. The absorbance was read at 405 nm. Concentrations ranging from 1 nM to 100 μM of inhibitors (dissolved in DMSO) were incubated with each of the enzymes ([…]) for 30 min at 37 °C in a 96 well plate. After addition of the substrate, immediate increase in absorption was measured. All inhibition assays were performed in triplicates and initial velocities were measured. Percentage inhibition and log values of inhibitor concentrations were plotted using SigmaPlot to determine IC50 values. Ki values were determined by the Dixon method. The assay consists of reaction buffer, enzyme and varied concentrations of Leu-pNA (25, 50, 100, 200 and 400 µM). […] Data were plotted as 1/rate versus inhibitor concentration for each substrate concentration and a linear fit was calculated by non-linear regression using SigmaPlot12.5. All the reactions were performed in triplicates, SD values were reported.

Series [3] has as its target T2, human endoplasmic reticulum aminopeptidase 2 (rHsERAP2) (Homo sapiens, UniProt Q6P179).
T2 construct: made in house; host or cells: Hi5 insect cells (baculovirus produced in sf9)
As to the kind of experiment: rHsERAP2 inhibition, R-AMC fluorigenic substrate. Particulars: 50 µM R-AMC. Format: biochemical. The protocol: The enzymatic activity of HsERAP1, HsERAP2 and HsIRAP was determined by following the time-dependent increase in fluorescence at 460 nm (excitation: 380 nm) of the fluorigenic substrates L-Leucine-7-amido-4-methyl coumarin (L-AMC; Sigma, Darmstatd, Germany) for HsERAP1 and HsIRAP and L-arginyl-7-amido-4-methyl coumarin (R-AMC; Sigma) for HsERAP2. […] The reaction was followed for 10 min at room temperature and the remaining enzymatic activity was calculated by measuring the slope of the time course.

The target in series [4] is human puromycine sensitive aminopeptidase (rHsPSA) (Homo sapiens, UniProt P55786). As to the kind of experiment: rHsPSA inhibition, Leu-pNA substrate, Dixon method. Format: biochemical. Conditions: triplicate, SD. The protocol:
Enzyme activity assays were carried out in 10 mM Tris-HCl buffer at pH 7.5 with 150 mM NaCl, enzyme, 100 µM substrate (Leu-pNA) in a 100 μL reaction at 37 °C. The absorbance was read at 405 nm. Concentrations ranging from 1 nM to 100 μM of inhibitors (dissolved in DMSO) were incubated with each of the enzymes ([…]) for 30 min at 37 °C in a 96 well plate. After addition of the substrate, immediate increase in absorption was measured. All inhibition assays were performed in triplicates and initial velocities were measured. Percentage inhibition and log values of inhibitor concentrations were plotted using SigmaPlot to determine IC50 values. Ki values were determined by the Dixon method. The assay consists of reaction buffer, enzyme and varied concentrations of Leu-pNA (25, 50, 100, 200 and 400 µM). […]. All the reactions were performed in triplicates, SD values were reported.

Series [5] concerns the target T3, human Leucyl-cystinyl aminopeptidase (rHsIRAP) (Homo sapiens, UniProt Q9UIQ6).
T3 construct: made in house; host or cells: Hi5 insect cells (baculovirus produced in sf9)
As to the kind of experiment: rHsIRAP inhibition, L-AMC fluorigenic substrate. Format: biochemical. Conditions: 50 µM L-AMC; read-out: IC50 rHsIRAP. The protocol:
The enzymatic activity of HsERAP1, HsERAP2 and HsIRAP was determined by following the time-dependent increase in fluorescence at 460 nm (excitation: 380 nm) of the fluorigenic substrates L-Leucine-7-amido-4-methyl coumarin (L-AMC; Sigma, Darmstatd, Germany) for HsERAP1 and HsIRAP and L-arginyl-7-amido-4-methyl coumarin (R-AMC; Sigma) for HsERAP2. […]. The reaction was followed for 10 min at room temperature and the remaining enzymatic activity was calculated by measuring the slope of the time course. […]

In series [6] the target is pAPN from porcine kidney. Particulars: Dixon plots; cited from earlier work.
Series [7] addresses human leukotriene A4 hydrolase (rHsLTA4H). Further details: method as in PMID 21843945. Particulars: ref 58; cited from earlier work.
A short description of series [8]: Octanol/water partition coefficient (logD7.4) by reversed-phase HPLC. Particulars: pH 7.4.
Procedure: The flow was 0.9 mL/min. The aminobenzosuberone derivatives were dissolved at 0.4 µM in methanol. The standards were also dissolved in methanol. Column void volume was estimated from the retention time of uracil, which was included as a non-retained internal reference with each injection.

Sequence of human puromycine sensitive aminopeptidase (rHsPSA) (P55786 whole entry): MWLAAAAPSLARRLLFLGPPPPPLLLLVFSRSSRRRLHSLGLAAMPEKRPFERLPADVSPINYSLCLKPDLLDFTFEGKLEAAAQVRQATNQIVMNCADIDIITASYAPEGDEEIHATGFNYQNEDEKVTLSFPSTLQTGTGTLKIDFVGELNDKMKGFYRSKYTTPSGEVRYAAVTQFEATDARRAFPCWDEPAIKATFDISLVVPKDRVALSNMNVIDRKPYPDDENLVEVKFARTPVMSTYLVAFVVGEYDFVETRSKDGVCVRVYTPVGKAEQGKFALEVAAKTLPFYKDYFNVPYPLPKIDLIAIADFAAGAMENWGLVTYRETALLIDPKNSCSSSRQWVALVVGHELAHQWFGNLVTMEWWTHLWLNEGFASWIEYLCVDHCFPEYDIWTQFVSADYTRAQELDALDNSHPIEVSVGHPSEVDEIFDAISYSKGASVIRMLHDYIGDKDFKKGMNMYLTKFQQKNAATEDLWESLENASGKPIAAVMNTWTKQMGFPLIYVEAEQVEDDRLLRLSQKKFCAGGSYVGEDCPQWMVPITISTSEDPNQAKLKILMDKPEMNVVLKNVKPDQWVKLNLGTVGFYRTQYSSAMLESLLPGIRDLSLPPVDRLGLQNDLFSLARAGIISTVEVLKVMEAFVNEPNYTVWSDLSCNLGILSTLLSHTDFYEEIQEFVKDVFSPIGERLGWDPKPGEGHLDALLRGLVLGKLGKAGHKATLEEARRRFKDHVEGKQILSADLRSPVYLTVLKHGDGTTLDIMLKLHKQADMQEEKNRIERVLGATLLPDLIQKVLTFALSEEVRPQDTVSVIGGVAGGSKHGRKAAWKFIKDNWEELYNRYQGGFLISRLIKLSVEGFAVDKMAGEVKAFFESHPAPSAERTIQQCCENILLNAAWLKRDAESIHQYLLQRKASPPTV
T2 sequence (Q6P179 whole entry): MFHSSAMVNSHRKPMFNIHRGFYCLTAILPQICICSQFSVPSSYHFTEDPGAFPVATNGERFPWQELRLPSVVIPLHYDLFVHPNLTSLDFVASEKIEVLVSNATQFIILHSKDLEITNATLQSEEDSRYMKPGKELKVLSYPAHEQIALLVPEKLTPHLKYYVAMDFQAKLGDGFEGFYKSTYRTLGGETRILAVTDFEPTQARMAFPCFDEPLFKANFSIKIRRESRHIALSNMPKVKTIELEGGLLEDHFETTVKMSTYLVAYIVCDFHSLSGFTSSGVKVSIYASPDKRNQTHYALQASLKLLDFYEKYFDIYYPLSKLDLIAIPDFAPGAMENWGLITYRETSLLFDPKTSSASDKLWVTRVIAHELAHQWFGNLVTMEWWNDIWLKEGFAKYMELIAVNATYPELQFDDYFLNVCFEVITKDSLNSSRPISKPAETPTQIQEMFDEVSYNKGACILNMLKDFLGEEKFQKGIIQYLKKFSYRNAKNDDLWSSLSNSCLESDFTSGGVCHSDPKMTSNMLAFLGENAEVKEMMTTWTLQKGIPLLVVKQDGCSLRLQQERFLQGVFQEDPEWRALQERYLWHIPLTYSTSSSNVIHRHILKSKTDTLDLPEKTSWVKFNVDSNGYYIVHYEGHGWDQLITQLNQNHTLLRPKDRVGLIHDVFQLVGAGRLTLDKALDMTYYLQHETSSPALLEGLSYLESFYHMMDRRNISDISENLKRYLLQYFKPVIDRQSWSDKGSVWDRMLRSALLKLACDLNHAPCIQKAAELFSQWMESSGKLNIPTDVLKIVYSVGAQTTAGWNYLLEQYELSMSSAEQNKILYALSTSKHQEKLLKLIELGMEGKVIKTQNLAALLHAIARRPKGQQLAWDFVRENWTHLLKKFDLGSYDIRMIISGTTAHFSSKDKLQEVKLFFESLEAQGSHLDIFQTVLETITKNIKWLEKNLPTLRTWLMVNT
T3 sequence (Q9UIQ6 155-1025 limits assumed): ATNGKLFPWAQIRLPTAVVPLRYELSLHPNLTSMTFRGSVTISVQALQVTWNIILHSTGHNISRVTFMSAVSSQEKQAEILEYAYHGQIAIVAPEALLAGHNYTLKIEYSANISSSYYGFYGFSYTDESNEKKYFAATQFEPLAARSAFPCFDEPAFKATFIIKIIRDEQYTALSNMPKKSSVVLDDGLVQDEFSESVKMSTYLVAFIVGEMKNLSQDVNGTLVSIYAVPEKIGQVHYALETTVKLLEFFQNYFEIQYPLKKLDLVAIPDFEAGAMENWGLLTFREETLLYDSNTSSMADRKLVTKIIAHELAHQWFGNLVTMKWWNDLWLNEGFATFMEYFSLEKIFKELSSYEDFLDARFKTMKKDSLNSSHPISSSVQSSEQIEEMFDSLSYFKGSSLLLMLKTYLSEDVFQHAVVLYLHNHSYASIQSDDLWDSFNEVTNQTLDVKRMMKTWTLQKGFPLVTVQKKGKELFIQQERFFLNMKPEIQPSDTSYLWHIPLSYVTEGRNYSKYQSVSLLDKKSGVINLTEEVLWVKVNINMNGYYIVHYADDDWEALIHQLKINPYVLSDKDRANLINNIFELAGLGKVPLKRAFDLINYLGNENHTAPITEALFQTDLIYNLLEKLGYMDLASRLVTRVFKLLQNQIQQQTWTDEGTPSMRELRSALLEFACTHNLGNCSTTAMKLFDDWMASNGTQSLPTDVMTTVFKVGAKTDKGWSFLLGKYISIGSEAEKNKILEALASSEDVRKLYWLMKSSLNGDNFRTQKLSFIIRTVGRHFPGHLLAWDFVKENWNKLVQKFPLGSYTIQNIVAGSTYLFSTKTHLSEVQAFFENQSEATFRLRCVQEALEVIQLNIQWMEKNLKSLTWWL
Sequence of E. coli rEcPepN (P04825 whole entry): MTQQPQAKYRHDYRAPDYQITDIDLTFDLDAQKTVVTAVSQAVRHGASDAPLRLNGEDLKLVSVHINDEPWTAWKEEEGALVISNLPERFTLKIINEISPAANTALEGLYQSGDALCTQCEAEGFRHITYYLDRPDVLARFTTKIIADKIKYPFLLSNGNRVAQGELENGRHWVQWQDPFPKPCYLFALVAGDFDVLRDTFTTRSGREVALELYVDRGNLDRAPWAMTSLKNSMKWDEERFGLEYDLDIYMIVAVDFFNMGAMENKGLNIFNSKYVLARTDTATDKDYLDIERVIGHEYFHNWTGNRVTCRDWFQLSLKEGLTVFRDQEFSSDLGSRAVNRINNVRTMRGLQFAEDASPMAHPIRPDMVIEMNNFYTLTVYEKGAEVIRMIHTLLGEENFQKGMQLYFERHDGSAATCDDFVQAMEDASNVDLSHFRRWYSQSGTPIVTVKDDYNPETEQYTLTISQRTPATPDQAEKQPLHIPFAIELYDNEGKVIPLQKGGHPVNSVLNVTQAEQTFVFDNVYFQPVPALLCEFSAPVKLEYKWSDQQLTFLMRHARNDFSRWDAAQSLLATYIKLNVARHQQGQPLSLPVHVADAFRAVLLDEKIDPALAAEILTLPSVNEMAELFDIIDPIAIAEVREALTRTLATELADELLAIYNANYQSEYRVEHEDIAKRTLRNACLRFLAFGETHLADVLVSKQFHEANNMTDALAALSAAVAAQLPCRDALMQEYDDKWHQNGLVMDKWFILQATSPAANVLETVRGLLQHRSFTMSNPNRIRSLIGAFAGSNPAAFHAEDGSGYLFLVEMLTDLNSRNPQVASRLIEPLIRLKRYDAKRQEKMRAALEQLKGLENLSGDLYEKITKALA

In the case of `NC1CCc2c(Br)cccc2CC1=O` (centres unmarked) [21e], the Ki (usually a dissociation constant, usually derived from enzyme kinetics or from competition with a known ligand) in series [1] was 1000 ± 40 nM; in series [2] it was 4590 ± 170 nM; in series [4], 1070 ± 63 nM; in series [6], 20 nM; in series [7] it was more than 100000 nM. The values for the IC50 in series [3] and in series [5] were 104000 ± 7000 nM and 2600 ± 200 nM, respectively. Besides, the chromatographic logD (in general, a lipophilicity value derived from retention on a column) in series [8] came out at 1.41.
